Measured values taken from patent USRE39192E1, “Supplemented and unsupplemented tissue sealants, methods of their production and use” (American National Red Cross, priority 1990, dated 2006).

How the values were obtained:
[1] = tested on: NIH 3T3 cells; experiment: 3H-thymidine incorporation assay with NIH 3T3 cells; assay type: cell-based; conditions: after incubation with 250 U/ml thrombin and 5 U/ml heparin for 0, 24 or 72 hours
Protocol: FIG. 2. Graph ShowingReissue the incorporation of ^3H-thymidine as a function of relative HBGF-1β concentration. Samples of the HBGF-1β were incubated, as described in FIG. 1 and Example 2, in the presence of 250 U/ml thrombin and 5 U/ml heparin for 0, 24 or 72 hours. Dilutions of these samples were then added to NHI 3T3 cells, which were plated as described in Example 3. CPM is plotted v. HBGF-1 concentration.
The biological activity of HBGF-1 in the incubation mixture that contained 5 U/ml of heparin, and was described in Example 2, was measuring using an ^3H-thymidine incorporation assay with NIH 3T3 cells.
NIH 3T3 cells were introduced into 96 well plates and were incubated at 37° C. under starvation conditions in Dulbecco's Modified Medium (DMEM; GIBCO, Grand Island, N.Y.) with 0.5% […] bovine serum (BCS; GIBCO, Grand Island, N.Y.) until the cells reached 30 to 50% confluence. Two days later, varying dilutions of HBGF-1 from the samples prepared in Example 2 were added to each well without changing the medium. Diluent (incubation buffer) was added in place of growth factor for the negative controls and DMEM with 10% BCS, which contains growth factors needed for growth, was added in place of the HBGF-1 sample for the positive controls. […]

[2] = tested on: NIH 3T3 fibroblasts; experiment: Cell chemotaxis assay (modified Boyden's chamber), NIH 3T3 fibroblasts; assay type: cell-based
Text: NIH/3T3 fibroblasts at passage 126 were purchased from the American Type Culture Collection, Rockville, Md. Cultures from passages 129-133 were used in the chemotaxis assays. Cultures were propagated in DMEM supplemented with 10%. Calf serum and approximately 1% antibiotic antimycotic solution. Human dermal fibroblasts (HDFs) were purchased from Clonetics, Inc. (San Diego, Calif.) at passage 2. Cultures from passages 3-5 were used in the chemotaxis assays. Cultures were cultivated in DMEM supplemented with 20% FBS (Hyclone Laboratories, Inc., Logan, Utah) and approximately 1% antibiotic antimycotic solution (Gibco, Grand Island, N.Y.).
The procedure used to determine cellular chemotaxis was a combination of two known methodologies. A modification of Boyden's chamber was used as follows: Millicell-PCF (Millipore, Inc., Bedford, Mass.) (12.0 μm) 12.0 mm diameter inserts were placed in individual wells of 24 well plates to create the upper and lower chemotaxis chambers. Chemotaxis results were arrived at by performing checkerboard analysis for every combination of cells and growth factors. […] Briefly, cultures were trypsanized and placed in DMEM+0.1% Bovine Serum Albumin (BSA) (Sigma Chemical Co., St. Louis, Mo.) for approximately one hour at 37° C. in a 5% CO2 humidified chamber. Tow to 2.5×10^5 cells in 50 μl were added per insert to the upper chamber of the setup of the 24 well plates. Treatments were added as mentioned above. The assay was kept at 37° C. in a 5% CO2 humidified chamber for 4 hours. All combinations tested were performed in triplicate. At the end of 4 hours, the plates were removed from the incubator and the filters were stained following the protocol for staining included with the Millicell-PCT inserts. Briefly, the fluid surrounding the inside and outside of the Millicell-PCF inserts were removed. Three percent glutaraldehyde (Sigma Chemical Co., St. Louis, Mo.) was added to the outside and inside of the inserts for approximately 20 minutes. Following removal of the 3.0% glutaraldehyde, 0.5% Triton X-100 (E.M. Science, Cherry Hill, N.J.) was added for 5-7 minutes. On removal of the 0.5% Triton X-100, Fisher's Hematoxylin Solution Gill's Formulation (Fisher Scientific, Newark, Del.) No.1 was added for about 10 minutes. This solution was washed off in running distilled water for about 5 minutes. Using a cotton swab the upper side of the filter was swabbed to remove cells which had not migrated. Filters, were mounted lower side facing up on slides in Crystal Mount™ (Biomedia, Inc., Foster City, Calif.) solution and 10 random field were counted per slide both visually at 400× and at 200×using an Image Analyzing System to automate the enumeration of the cells on the underside of the filters.
As required, checkerboard analysis was carried out to determine random migration, and positive and negative chemotaxis. Growth factors were added to the upper and/or lower chambers to observe whether cells migrated towards the GF alone (chemotaxis), whether migration was random irrespective of whether the growth factor was added to the upper or lower well (chemokinesis) or whether cell migration was against the chemotactic gradient (negative chemotaxis).

HBGF-1: heparin binding growth factor-1, also known as ECGF and FGF-1; recombinant HBGF-1β expressed in E. coli
biological activity (3H-thymidine incorporation) [1]: retained its biological activity
checkerboard analysis [2]: chemotactic
concentration of maximum stimulation of migration ([2]; FGF-1 in the presence of 10 U/ml heparin): 10 ng/mL
migrated cells (checkerboard analysis) ([2]; lower 0 ng/ml, upper 1 ng/ml): 53.93 +/− 4.152
migrated cells (checkerboard analysis) ([2]; lower 0 ng/ml, upper 5 ng/ml): 27.27 +/− 3.873
migrated cells (checkerboard analysis) ([2]; lower 0 ng/ml, upper 10 ng/ml): 25.96 +/− 4.151
migrated cells (checkerboard analysis) ([2]; lower 1 ng/ml, upper 0 ng/ml): 59.46 +/− 6.89
migrated cells (checkerboard analysis) ([2]; lower 1 ng/ml, upper 1 ng/ml): 36.9 +/− 5.728
migrated cells (checkerboard analysis) ([2]; lower 1 ng/ml, upper 5 ng/ml): 22.1 +/− 9.232
migrated cells (checkerboard analysis) ([2]; lower 1 ng/ml, upper 10 ng/ml): 35.86 +/− 2.074
migrated cells (checkerboard analysis) ([2]; lower 5 ng/ml, upper 0 ng/ml): 64.867 +/− 1.75
migrated cells (checkerboard analysis) ([2]; lower 5 ng/ml, upper 1 ng/ml): 41.44 +/− 1.866
migrated cells (checkerboard analysis) ([2]; lower 5 ng/ml, upper 5 ng/ml): 24.84 +/− 4.337
migrated cells (checkerboard analysis) ([2]; lower 5 ng/ml, upper 10 ng/ml): 41.6 +/− 6.717
migrated cells (checkerboard analysis) ([2]; lower 10 ng/ml, upper 0 ng/ml): 70.83 +/− 2.752
migrated cells (checkerboard analysis) ([2]; lower 10 ng/ml, upper 1 ng/ml): 39.73 +/− 2.428
migrated cells (checkerboard analysis) ([2]; lower 10 ng/ml, upper 5 ng/ml): 39.73 +/− 2.428
migrated cells (checkerboard analysis) ([2]; lower 10 ng/ml, upper 10 ng/ml): 41.83 +/− 6.879
